In patent publication US6451972B1, “Peptido-mimetic compounds containing RGD sequence useful as integrin inhibitors” (Sigma-Tau Industrie Farmaceutiche Riunite S.p.A., priority 1998, dated 2002):

Tests used:
[1] = system: M109 lung carcinoma; experiment: Antitumor and antimetastatic activity on M109 lung carcinoma-bearing Balb/c mice; format: in vivo; settings: 200 μg/mouse (10 mg/kg) i.p. qdx9; lung metastases at day 16; untreated group 34
Experimental: Balb/c mice were injected i.m. with M109 lung carcinoma cells (3×10^5 cells/mouse) into the hind leg muscle.
Tumors were excised at day 10th after tumor implant. Mice were sacrificed at day 16th from tumor implant and lungs were removed. The number of lung metastases has been evaluated on tumor-excised mice (3 mice/group) using a dissecting microscope.
TVI % (tumor volume inhibition)=100−[(mean tumor weight of treated group/mean tumor weight of control group)×100]. Calculated on day 16th after tumor implant (just before mice sacrifice) on nonoperated mice.

[2] = system: murine lung carcinoma cells (M109) adhesion to Vitronectin; experiment: Adhesion assay on vitronectin, M109 cells; format: cell-based
Experimental: Murine lung carcinoma cells (M109) were purchased from American Type Collection Culture (ATCC) and maintained in RPMI supplemented with 10% foetal calf serum, 10 mM L-glutamine and 100 units/ ml gentamicin.
(§1) Ninety-six-well plates (Falcon) were coated with either fibronectin or vitronectin (both at […] in phosphate buffered saline) overnight at 4° C. Cells were detached using EDTA (1 mM)/trypsine (0.25%) and resuspended in own medium described above. Approximately 40,000 cells/[…] were applied for each well and allowed to adhere for 60 min at 37° C. in presence of different amounts of RGD peptides. For all experiments the non-adherent cells were removed with PBS and the remaining cells were fixed with 4% paraformaldehyde for 10 min.
(§2) Cells were stained with 1% toluidine blue for 10 min and rinsed with water.
(§3) Stained cells were solubilized with 1% SDS and quantified on a microtiter plate reader at 600 nm.
(§4) Experiments described were performed in quadruplicate and repeated a minimum of three times. […]
(§5) The percentages of adhesion inhibition refer to 1.5 μM concentration of each peptide and were calculated by the following formula (control-sample/control×100) where control was RGD untreated sample.
The t-test has been calculated using the Mann Witney non parametric test, by the instat program. […]

[3] = system: HMEC cells adhesion to Vitronectin; experiment: Adhesion assay on vitronectin, HMEC cells; format: cell-based
Experimental: as §1, §2, §3
Experiments described were performed in quadruplicate and repeated a minimum of three times.
To asses the ability of ST1646 peptide to compete with vitronectin in adhesion assay also on other cells type, we performed this experiment using microvascular endothelial cells (HMEC), human prostate carcinoma cells (PC3) and murine lung carcinoma cells (M109). Table 6 (a, b and c) show a good activity of the ST1646 peptide in inhibiting adhesion of all cells type. […]
as §5

[4] = system: bovine microvascular endothelial cells (BMEC) adhesion to Fibronectin; experiment: Adhesion inhibition of BMEC to fibronectin; format: cell-based
Experimental: (§6) Bovine microvascular endothelial cells (BMEC) were maintained in DMEM supplemented with 20% foetal calf serum, 50 units/ml heparin, 50 μg/ml bovine brain extract, 100 units/ml gentamycin.
(§7) BMEC were cultured on 1% gelatine-coated culture flasks and employed in experiments between passage 6-12.
as §1, §2, §3, §4
(§8) The percentages of adhesion inhibition refer to 100 μM concentration of each peptide of and it's calculated by the following formula (control-sample/control×100) where control was RGD untreated sample. […] The t-test has been calculated, using the Mann Witney non parametric test, by the instat program. […]

[5] = system: bovine microvascular endothelial cells (BMEC) adhesion to Vitronectin; experiment: Adhesion inhibition of BMEC to vitronectin; format: cell-based
Experimental: as §6, §7, §1, §2, §3, §4
as §8, with “µM” for “μM”

[6] = system: human prostate carcinoma cells (PC3) adhesion to Vitronectin; experiment: Adhesion assay on vitronectin, PC3 cells; format: cell-based
Experimental: Human prostate carcinoma cells (PC3) were purchased from American Type Collection Culture (ATCC) and maintained in RPMI supplemented with 10% foetal calf serum, 10 mM L-glutamine, 1% sodium piruvate and 100 units/ml gentamicin.
as §1, §2, §3, §4, §5

`CC(C)[C@@H]1NC(=O)[C@@H](Cc2ccccc2)NC(=O)[C@H](CC(=O)O)NC(=O)CNC(=O)[C@H](CCCNC(=N)N)NC1=O` [KESSLER, cyclo (Arg-Gly-Asp-D-Phe-Val)] was tested, and the “Mean no. of metastases” value [1] was 23, the “% Inhibition” value ([2]; 1.5 μM peptide) was 70% and the IC50 ([2]; average of 3 experiments) was 0.46 ± 0.5 µM. For the same molecule, the “% Inhibition” value ([3]; 1.5 μM peptide) was 39%, the IC50 ([3]; average of 3 experiments) was 4.23 ± 0.31 µM and the “% Inhibition” value ([4]; BMEC on fibronectin, 100 μM concentration of each peptide, mean of 4 samples) was 30%. The IC50 ([4]; BMEC, fibronectin-coated plates, 100 to 0.6 μM tested, ± SD) was > 100 µM, the “% Inhibition” value ([5]; BMEC on vitronectin, 100 µM concentration of each peptide, mean of 4 samples) was 96% and the IC50 ([5]; BMEC, vitronectin-coated plates, 100 to 0.6 μM tested, ± SD) was 7.8 ± 1.2 µM. For the same molecule, the “% Inhibition” value ([6]; 1.5 μM peptide) was 69% and the IC50 ([6]; average of 3 experiments) was 2.5 ± 0.2 µM.
